Laboratory results: ChEMBL document CHEMBL4411335, “Identification and Optimization of Novel Small c-Abl Kinase Activators Using Fragment and HTS Methodologies” (J Med Chem, 2019)
Values after ≈ are worked out from the molar mass of the structure shown.

Assays:
[1] = Permeability of the compound at […] after 3 hrs by artificial membrane permeability assay; format: ADME; conditions: PAMPA; read-out: permeability
[2] = Kinetic solubility of the compound at pH 7.4 after 1 hr by CLND-based assay; format: physicochemical; conditions: buffer, read-out: Kinetic_solubility
[3] = target: Tyrosine-protein kinase ABL1 (Homo sapiens, UniProt P00519, D382N); assay: Displacement of Myr-GQQPGKVLGDQRRPSL(K-TAMRA)G-amide from N-terminal-truncated human c-ABL D382N mutant (46 to 534 residues) after 30 mins by fluorescence polarization binding assay
[4] = target: T1, Tyrosine-protein kinase ABL1 (Homo sapiens, UniProt P00519); assay: Activation of full length human 6His-tagged c-Abl expressed in baculovirus expression system using abltide as substrate after 2 hrs by IMAP assay; conditions: for EC50 for c-Abl activation: read-out: pIC50 (converted)
[5] = target: T1, Tyrosine-protein kinase ABL1; assay: Induction of human c-ABL phosphorylation at Y245/Y412 residues in bacmam-induced HEK-MSR2 cell lysates by in-cell Western blot analysis; format: subcellular, Lysate

T1 sequence (P00519 whole entry): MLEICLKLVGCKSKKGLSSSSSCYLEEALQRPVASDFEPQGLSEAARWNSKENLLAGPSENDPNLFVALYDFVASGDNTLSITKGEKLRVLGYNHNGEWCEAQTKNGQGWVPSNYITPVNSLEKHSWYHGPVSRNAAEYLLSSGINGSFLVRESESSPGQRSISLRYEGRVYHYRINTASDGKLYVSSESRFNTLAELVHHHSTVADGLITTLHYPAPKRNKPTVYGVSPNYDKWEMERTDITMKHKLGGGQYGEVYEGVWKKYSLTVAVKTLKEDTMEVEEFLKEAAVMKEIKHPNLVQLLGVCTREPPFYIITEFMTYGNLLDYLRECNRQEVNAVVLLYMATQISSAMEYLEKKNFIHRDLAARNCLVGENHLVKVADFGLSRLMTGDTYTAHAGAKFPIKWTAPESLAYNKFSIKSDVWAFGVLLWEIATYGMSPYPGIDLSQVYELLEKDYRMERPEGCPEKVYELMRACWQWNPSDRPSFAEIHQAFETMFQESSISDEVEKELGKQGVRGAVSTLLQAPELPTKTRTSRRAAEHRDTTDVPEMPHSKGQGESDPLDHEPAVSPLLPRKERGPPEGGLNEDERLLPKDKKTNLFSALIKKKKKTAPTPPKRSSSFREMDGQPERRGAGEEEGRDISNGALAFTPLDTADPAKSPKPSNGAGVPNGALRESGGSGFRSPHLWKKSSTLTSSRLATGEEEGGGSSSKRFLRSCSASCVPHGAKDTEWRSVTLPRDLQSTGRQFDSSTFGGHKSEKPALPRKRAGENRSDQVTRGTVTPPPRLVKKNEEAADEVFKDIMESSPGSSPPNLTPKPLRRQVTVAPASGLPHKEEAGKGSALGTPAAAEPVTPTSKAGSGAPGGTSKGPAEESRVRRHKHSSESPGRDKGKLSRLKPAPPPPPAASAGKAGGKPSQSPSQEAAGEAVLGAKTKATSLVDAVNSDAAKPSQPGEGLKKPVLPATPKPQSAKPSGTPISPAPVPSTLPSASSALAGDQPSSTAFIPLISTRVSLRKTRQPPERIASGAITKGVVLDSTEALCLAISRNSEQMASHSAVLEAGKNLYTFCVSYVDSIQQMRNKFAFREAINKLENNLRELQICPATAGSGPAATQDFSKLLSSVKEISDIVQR
Sequence of Tyrosine-protein kinase ABL1 (Homo sapiens, UniProt P00519, D382N) (P00519 as listed by the source D382N): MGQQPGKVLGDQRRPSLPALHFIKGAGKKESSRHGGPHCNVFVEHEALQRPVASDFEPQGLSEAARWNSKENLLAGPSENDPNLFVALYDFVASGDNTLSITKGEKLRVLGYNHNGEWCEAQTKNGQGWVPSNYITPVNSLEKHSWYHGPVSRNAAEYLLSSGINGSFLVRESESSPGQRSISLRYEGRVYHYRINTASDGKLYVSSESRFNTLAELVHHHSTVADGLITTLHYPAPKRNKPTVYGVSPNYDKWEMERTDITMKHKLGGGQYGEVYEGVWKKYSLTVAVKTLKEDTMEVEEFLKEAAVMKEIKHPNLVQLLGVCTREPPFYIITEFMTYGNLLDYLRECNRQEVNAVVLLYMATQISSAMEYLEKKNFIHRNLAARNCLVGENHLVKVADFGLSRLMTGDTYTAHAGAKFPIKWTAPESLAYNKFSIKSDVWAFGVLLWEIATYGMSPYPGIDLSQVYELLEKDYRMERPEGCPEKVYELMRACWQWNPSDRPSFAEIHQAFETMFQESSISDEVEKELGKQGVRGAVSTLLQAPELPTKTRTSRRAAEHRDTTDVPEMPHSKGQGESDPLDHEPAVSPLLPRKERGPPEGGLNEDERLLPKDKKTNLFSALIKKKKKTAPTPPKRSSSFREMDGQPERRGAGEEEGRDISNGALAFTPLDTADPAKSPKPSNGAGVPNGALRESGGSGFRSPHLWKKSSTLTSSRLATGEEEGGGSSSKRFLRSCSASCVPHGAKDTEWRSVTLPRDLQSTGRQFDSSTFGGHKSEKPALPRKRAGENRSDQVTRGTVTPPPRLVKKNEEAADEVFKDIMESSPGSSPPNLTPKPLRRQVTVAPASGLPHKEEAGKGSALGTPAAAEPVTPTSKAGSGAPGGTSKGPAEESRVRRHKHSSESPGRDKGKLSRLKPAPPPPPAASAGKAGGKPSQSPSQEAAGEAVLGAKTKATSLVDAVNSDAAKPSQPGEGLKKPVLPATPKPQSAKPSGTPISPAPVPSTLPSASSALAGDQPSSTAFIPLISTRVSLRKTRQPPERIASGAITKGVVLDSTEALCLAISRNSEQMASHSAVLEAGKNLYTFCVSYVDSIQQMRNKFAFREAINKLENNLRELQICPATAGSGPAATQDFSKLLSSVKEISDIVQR

SMILES	Papp at 3 h [1]	solubility kinetic at 1 h [2]	IC50 [3]	EC50 for c-Abl activation [4]	EC50 [5]	EC50 [4]
N#CCC(=O)Nc1nsc(-c2ccc(Cl)c(Cl)c2)n1	28 ×10⁻⁶ cm/s	69 µM (≈ 21.6 µg/mL)	2510 nM	2000 nM	15800 nM	
CC(=O)NC1=NN(c2ccc(Cl)c(Cl)c2)[C@@H](C)C1	42 ×10⁻⁶ cm/s	125 µM (≈ 35.8 µg/mL)	398 nM	501 nM	10000 nM	
O=C1NC(=O)C(c2cn(-c3ccccc3)nc2-c2ccc(F)cc2)N1 (configuration not stated)	35 ×10⁻⁶ cm/s	> 395 µM	398 nM		794 nM	
CC(=O)Nc1nc(-c2cccc(O)c2)cs1	27 ×10⁻⁶ cm/s	103 µM (≈ 24.1 µg/mL)	12600 nM	> 50100 nM		
CC(=O)Nc1nc(-c2ccc(Br)s2)cs1	21 ×10⁻⁶ cm/s	16 µM (≈ 4.85 µg/mL)	5010 nM	12600 nM	> 50100 nM	
N#CCC(=O)Nc1csc(-c2ccc(Cl)c(Cl)c2)c1	12 ×10⁻⁶ cm/s	10 µM (≈ 3.11 µg/mL)	3980 nM	15800 nM	> 50100 nM	
CC(=O)NC1=NN(c2ccc(Cl)c(Cl)c2)C[C@H]1C	38 ×10⁻⁶ cm/s	36 µM (≈ 10.3 µg/mL)	3980 nM		20000 nM	
N#CCC(=O)Nc1cccc(-c2ccc(Cl)c(Cl)c2)n1	21.5 ×10⁻⁶ cm/s	1 µM (≈ 0.306 µg/mL)	1580 nM	12600 nM	> 50100 nM	
O=C(NC1=NN(c2ccc(Cl)c(Cl)c2)CC1CCO)c1cccnc1 (racemic)	19 ×10⁻⁶ cm/s	192 µM (≈ 72.8 µg/mL)	251 nM	126 nM	7940 nM	
Cn1cnnc1SCC(=O)Nc1nc(-c2ccc(Cl)c(Cl)c2)cs1			794 nM		20000 nM	10000 nM
N#CCC(=O)Nc1csc(-c2ccc(Cl)c(Cl)c2)n1	35 ×10⁻⁶ cm/s	2 µM (≈ 0.624 µg/mL)	126 nM	1580 nM	15800 nM	
N#CCC(=O)Nc1nc(-c2ccc(Cl)c(Cl)c2)c[nH]1	31 ×10⁻⁶ cm/s	14 µM (≈ 4.13 µg/mL)	631 nM	1580 nM	3160 nM	
Cn1ncc([N+](=O)[O-])c1C(=O)Nc1nc(-c2ccc(Cl)c(Cl)c2)cs1	26 ×10⁻⁶ cm/s	< 1 µM	200 nM	31.6 nM	15800 nM	
CC(=O)NC1=NN(c2ccc(Cl)c(Cl)c2)[C@H](C)C1	41 ×10⁻⁶ cm/s	173 µM (≈ 49.5 µg/mL)	1580 nM	2000 nM	10000 nM	
CC(=O)Nc1nc(-c2nc(C)no2)cs1	25 ×10⁻⁶ cm/s	186 µM (≈ 41.7 µg/mL)	> 50100 nM	> 100000 nM		
CC(=O)Nc1nc(-c2ccc(F)c(Cl)c2)cs1	9.4 ×10⁻⁶ cm/s	10 µM (≈ 2.71 µg/mL)	2510 nM	39800 nM	> 50100 nM	
CC(=O)Nc1nc(-c2cccc(Cl)c2)cs1	34 ×10⁻⁶ cm/s	2 µM (≈ 0.505 µg/mL)	> 50100 nM	7940 nM		
CC(=O)Nc1nc(-c2ccc(Cl)c(F)c2)cs1	35 ×10⁻⁶ cm/s	5 µM (≈ 1.35 µg/mL)	794 nM	3160 nM	50100 nM	
O=C(Nc1nc(-c2ccc(Cl)c(Cl)c2)cs1)c1cccnc1	37 ×10⁻⁶ cm/s	20 µM (≈ 7 µg/mL)	200 nM	398 nM	> 50100 nM	

SMILES	Papp at 3 h [1]	solubility kinetic at 1 h [2]	IC50 [3]	EC50 for c-Abl activation [4]	EC50 [5]	EC50 [4]
Cc1ncncc1C(=O)NC1=NN(c2ccc(Cl)c(Cl)c2)CC1	34 ×10⁻⁶ cm/s	12 µM (≈ 4.2 µg/mL)	158 nM	39.8 nM	316 nM	
O=C1CCCC(C(=O)NC2=NN(c3ccc(Cl)c(Cl)c3)CC2)N1 (configuration not stated)	25 ×10⁻⁶ cm/s	416 µM (≈ 148 µg/mL)	501 nM	398 nM	2510 nM	
O=C(NC1=NN(c2ccc(Cl)c(Cl)c2)CC1)c1cccnn1		67 µM (≈ 22.5 µg/mL)	794 nM	5010 nM	> 50100 nM	
O=C(NC1=NN(c2ccc(Cl)c(Cl)c2)CC1)c1cncnc1	35 ×10⁻⁶ cm/s	8 µM (≈ 2.69 µg/mL)	501 nM	251 nM	631 nM	
CC(=O)NC1=NN(c2ccc(Cl)c(Cl)c2)C[C@@H]1C	42 ×10⁻⁶ cm/s	32 µM (≈ 9.16 µg/mL)	398 nM		631 nM	
CC(=O)NC1=NN(c2ccc(Cl)c(Cl)c2)CC1C (racemic)	40.5 ×10⁻⁶ cm/s	49 µM (≈ 14 µg/mL)	794 nM		501 nM	
O=C(NC1=NN(c2ccc(Cl)c(Cl)c2)CC1)c1ccncc1F	28 ×10⁻⁶ cm/s	36 µM (≈ 12.7 µg/mL)	200 nM	126 nM	1580 nM	
O=C(NC1=NN(c2ccc(Cl)c(Cl)c2)CC1)c1ccccn1	35 ×10⁻⁶ cm/s	11 µM (≈ 3.69 µg/mL)	2000 nM	2000 nM	> 50100 nM	
N#CCC(=O)Nc1nc(-c2ccc(Cl)c(Cl)c2)cs1	14.2 ×10⁻⁶ cm/s	57 µM (≈ 17.8 µg/mL)	501 nM	1260 nM	5010 nM	
O=C(NC1=NN(c2ccc(Cl)c(Cl)c2)CC1)c1ccncn1	32 ×10⁻⁶ cm/s	13 µM (≈ 4.37 µg/mL)	1000 nM	15800 nM	39800 nM	
O=C(NC1=NN(c2ccc(Cl)c(Cl)c2)CC1CCO)c1ccncc1 (racemic)	33.5 ×10⁻⁶ cm/s	167 µM (≈ 63.3 µg/mL)	158 nM	100 nM	3160 nM	
CC(=O)Nc1nc(-c2ccc(Cl)cc2)cs1	25 ×10⁻⁶ cm/s	1 µM (≈ 0.253 µg/mL)	10000 nM	31600 nM		
O=C(NC1=NN(c2ccc(Cl)c(Cl)c2)CC1)c1ccncc1	30.3 ×10⁻⁶ cm/s	9 µM (≈ 3.02 µg/mL)	316 nM	200 nM	1580 nM	
CC(=O)N[C@@H](C)C(=O)NC1=NN(c2ccc(Cl)c(Cl)c2)CC1	34 ×10⁻⁶ cm/s	58 µM (≈ 19.9 µg/mL)	1260 nM	1580 nM	7940 nM	
CC(=O)Nc1nc(-c2ccc(Cl)c(C)c2)cs1	14 ×10⁻⁶ cm/s	1 µM (≈ 0.267 µg/mL)	794 nM	31600 nM	> 50100 nM	
O=C(Nc1nc(-c2ccc(Cl)c(Cl)c2)cs1)c1c(F)cccc1F	< 3 ×10⁻⁶ cm/s	5 µM (≈ 1.93 µg/mL)	316 nM	251 nM	5010 nM	
N#CCC(=O)Nc1ccn(-c2ccc(Cl)c(Cl)c2)n1	31 ×10⁻⁶ cm/s	34 µM (≈ 10 µg/mL)	1580 nM	2510 nM	7940 nM	
O=C(NC1=NN(c2ccc(Cl)c(Cl)c2)CC1)c1ccnnc1	36 ×10⁻⁶ cm/s	23 µM (≈ 7.73 µg/mL)	501 nM	251 nM	501 nM	
O=C(NC1=NN(c2ccc(Cl)c(Cl)c2)CC1)c1c(F)cccc1F			398 nM	631 nM	3160 nM	
